Assay results from US20240116985A1, “STAPLED PEPTIDES AND METHODS THEREOF” (priority 2020, published 2024).
In brackets after ≈: the same amount, converted by molar mass. Read-outs that look alike come from different tables or passages of the source.

Key:
[1] = target: T1, full-length B-Catenin (Uniprot ID P35222) (Homo sapiens, UniProt P35222); assay: Alphascreen binding assay (beta-catenin / biotin-TCF4 10-53)
T1 construct: 65 nM full-length B-Catenin (Uniprot ID P35222)
T1 sequence (P35222 1-781): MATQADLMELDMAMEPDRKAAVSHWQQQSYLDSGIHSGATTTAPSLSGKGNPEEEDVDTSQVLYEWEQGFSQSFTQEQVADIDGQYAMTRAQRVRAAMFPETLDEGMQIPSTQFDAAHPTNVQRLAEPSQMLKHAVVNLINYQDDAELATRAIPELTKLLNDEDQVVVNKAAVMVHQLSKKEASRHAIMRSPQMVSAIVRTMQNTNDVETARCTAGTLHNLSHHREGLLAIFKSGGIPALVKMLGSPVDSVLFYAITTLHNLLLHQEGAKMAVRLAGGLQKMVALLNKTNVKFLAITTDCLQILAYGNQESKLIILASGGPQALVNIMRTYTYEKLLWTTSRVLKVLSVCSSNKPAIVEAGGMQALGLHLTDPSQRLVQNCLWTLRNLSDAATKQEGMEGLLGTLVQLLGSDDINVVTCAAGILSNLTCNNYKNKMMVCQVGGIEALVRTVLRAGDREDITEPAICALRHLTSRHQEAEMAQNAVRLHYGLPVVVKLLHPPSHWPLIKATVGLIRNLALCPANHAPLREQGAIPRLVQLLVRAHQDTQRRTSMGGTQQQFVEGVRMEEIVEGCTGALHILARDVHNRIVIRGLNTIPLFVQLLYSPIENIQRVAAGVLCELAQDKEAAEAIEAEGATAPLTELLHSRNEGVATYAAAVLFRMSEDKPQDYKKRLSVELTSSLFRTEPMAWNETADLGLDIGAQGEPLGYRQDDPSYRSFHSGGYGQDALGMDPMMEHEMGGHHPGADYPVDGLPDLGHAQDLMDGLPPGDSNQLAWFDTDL
Procedure, shortened: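 Final concentrations: 65 nM full-length human β-catenin plus 10 nM biotin-TCF4(10-53) peptide, test peptide 3-fold from 10 uM to 5 nM, preincubated 15 min at 20 °C in Tris pH 8.0/250 mM NaCl buffer. Nickel-chelate AlphaScreen donor/acceptor beads then added for 60 min in the dark; duplicate reads fitted to 1:1 binding model with Hill slope.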

CHI Log D procedure = format: physicochemical; conditions: for CHI Log D: pH 7.4; for chromatographic logD: pH 7.4, CHI Log D
Solubility in PBS = format: physicochemical
Procedure, shortened: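 Solubility is derived from HPLC peak areas: the ratio of the PBS supernatant peak to a 50 μM DMSO peptide peak, times 50 uM.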

Row | SMILES | EC50 [1] | CHI Log D (CHI Log D procedure) | Solubility (Solubility in PBS) | chromatographic logD (CHI Log D procedure) | solubility at 15 min (Solubility in PBS; Solubility (uM)) | Solubility (Solubility in PBS; Solubility (uM))
1 | CC(=O)N[C@@H](Cc1ccccc1)C(=O)N[C@@H](CC(=O)O)C(=O)N[C@@H](C)C(=O)N[C@]1(C)CCCCCCC=CCOC(=O)N2CC[C@@](C(=O)N[C@@H](Cc3c(F)c(F)c(F)c(F)c3F)C(=O)N[C@@H](Cc3c[nH]c4ccccc34)C(=O)N[C@@H](CCC(N)=O)C(N)=O)(C2)NC(=O)[C@H](C(C)C)NC(=O)[C@H](Cc2ccccc2)NC(=O)[C@H](C)NC(=O)[C@H](C)NC(=O)[C@H](CC(=O)O)NC(=O)[C@H](CC(=O)O)NC1=O [I-228, Ac-Phe-Asp-Ala-R8-Asp-Asp-Ala-Ala-Phe-Val-PyrS-Pff-Trp-Gln-NH2] | 5.91 µM | 1.534 | 38 µM (≈ 72.7 µg/mL) | – | – | –
2 | CC(=O)N1CCC[C@]12CC=CCCCC1(CCCC=CCCCCCC[C@@](C)(C(=O)N[C@@H](C)C(=O)N[C@@H](Cc3c[nH]c4ccccc34)C(=O)N[C@@H](CCC(N)=O)C(N)=O)NC(=O)[C@H](C(C)C)NC(=O)[C@H](Cc3ccccc3)NC(=O)[C@H](C)NC(=O)[C@H](C)NC(=O)[C@H](CC(=O)O)NC(=O)[C@H](CC(=O)O)NC1=O)NC(=O)[C@H](C)NC(=O)[C@H](CC(=O)O)NC2=O (stereo partly drawn) [I-356, Ac-PL3-Asp-Ala-B5-Asp-Asp-Ala-Ala-Phe-Val-S8-Ala-Trp-Gln-NH2] | 8.2 µM | 1.619 | 50 µM (≈ 85.2 µg/mL) | – | – | –
3 | CC(=O)N[C@@H](Cc1ccccc1)C(=O)N[C@@H](CC(=O)O)C(=O)N[C@@H](C)C(=O)N[C@]1(C)CCCCCCC=CCOC(=O)N2CC[C@@](C(=O)N[C@@H](Cc3c(F)c(F)c(F)c(F)c3F)C(=O)N[C@@H](Cc3c[nH]c4ccccc34)C(=O)N[C@@H](CCC(N)=O)C(N)=O)(C2)NC(=O)[C@H](C(C)C)NC(=O)[C@H](Cc2ccccc2)NC(=O)[C@H](C)NC(=O)[C@H](C)NC(=O)[C@H](CC(=O)O)NC(=O)[C@H](CC(=O)O)NC1=O [I-227, Ac-Phe-Asp-Ala-R8-Asp-Asp-Ala-Ala-Phe-Val-PyrS-Pff-Trp-Gln-NH2] | 5.91 µM | 1.534 | 38 µM (≈ 72.7 µg/mL) | – | – | –
4 | CC(=O)N[C@@H](Cc1ccccc1)C(=O)N[C@@H](CC(=O)O)C(=O)N[C@@H](C)C(=O)N[C@]1(C)CCCCCCC=CCOC(=O)N2CC[C@@](C(=O)N[C@@H](Cc3ccccc3)C(=O)N[C@@H](Cc3c[nH]c4ccccc34)C(=O)N[C@@H](CCC(N)=O)C(N)=O)(C2)NC(=O)[C@H](C(C)C)NC(=O)[C@H](CC2CCCC2)NC(=O)[C@H](C)NC(=O)[C@H](C)NC(=O)[C@H](CC(=O)O)NC(=O)[C@H](CC(=O)O)NC1=O (single isomer, unassigned) [I-95, Ac-Phe-Asp-Ala-R8-Asp-Asp-Ala-Ala-CypA-Val-PyrS-Phe-Trp-Gln-NH2] | 8.66 µM | – | – | 1.31 | 33 µM (≈ 59.9 µg/mL) | –
5 | CC(=O)N1CCC[C@]12CC=CCCCC1(CCCC=CCCCCCC[C@@](C)(C(=O)N[C@@H](Cc3ccccc3)C(=O)N[C@@H](Cc3c[nH]c4ccccc34)C(=O)N[C@@H](CCC(N)=O)C(N)=O)NC(=O)[C@H](C(C)C)NC(=O)[C@H](C)NC(=O)[C@H](C)NC(=O)[C@H](C)NC(=O)[C@H](CC(=O)O)NC(=O)[C@H](CC(=O)O)NC1=O)NC(=O)[C@H](C)NC(=O)[C@H](CC(=O)O)NC2=O (stereo partly drawn) [I-353, Ac-PL3-Asp-Ala-B5-Asp-Asp-Ala-Ala-Ala-Val-S8-Phe-Trp-Gln-NH2] | 9.29 µM | 1.916 | 45 µM (≈ 76.7 µg/mL) | – | – | –
6 | CC(=O)N1CCC[C@]12CC=CCCCC1(CCCC=CCCCCCC[C@@](C)(C(=O)N[C@@H](CCc3ccccc3)C(=O)N[C@@H](Cc3c[nH]c4ccccc34)C(=O)N[C@@H](CCC(N)=O)C(N)=O)NC(=O)[C@H](C(C)C)NC(=O)[C@H](Cc3ccccc3)NC(=O)[C@H](C)NC(=O)[C@H](C)NC(=O)[C@H](CC(=O)O)NC(=O)[C@H](CC(=O)O)NC1=O)NC(=O)[C@H](C)NC(=O)[C@H](CC(=O)O)NC2=O (stereo partly drawn) [I-268, Ac-PL3-Asp-Ala-B5-Asp-Asp-Ala-Ala-Phe-Val-S8-hPhe-Trp-Gln-NH2] | 4 µM | – | – | 2.08 | – | 47 µM (≈ 84.4 µg/mL)
7 | CC(=O)N1CCC[C@]12CC=CCCCC1(CCCC=CCCCCCC[C@@](C)(C(=O)N[C@@H](Cc3ccccc3)C(=O)N[C@@H](Cc3c[nH]c4ccccc34)C(=O)N[C@@H](CCC(N)=O)C(N)=O)NC(=O)[C@H](C(C)C)NC(=O)[C@H](Cc3ccccc3)NC(=O)[C@H](C)NC(=O)[C@H](C)NC(=O)C(Cc3cccc4cc(F)ccc34)NC(=O)[C@H](CC(=O)O)NC1=O)NC(=O)[C@H](C)NC(=O)[C@H](CC(=O)O)NC2=O (stereo partly drawn) [I-256, Ac-PL3-Asp-Ala-B5-Asp-6F1NapA-Ala-Ala-Phe-Val-S8-Phe-Trp-Gln-NH2] | 9.21 µM | – | 10 µM (≈ 18.8 µg/mL) | 3.1 | – | –

Compounds with a lower EC50 [1], results first:

Row | EC50 [1] | CHI Log D (CHI Log D procedure) | Solubility (Solubility in PBS) | chromatographic logD (CHI Log D procedure) | solubility at 15 min (Solubility in PBS; Solubility (uM)) | Solubility (Solubility in PBS; Solubility (uM)) | SMILES
8 | 2.13 µM | 1.947 | 50 µM (≈ 85.2 µg/mL) | – | – | – | CC(=O)N1CCC[C@]12CC=CCCCC1(CCCC=CCCCCCC[C@@](C)(C(=O)N[C@@H](Cc3ccccc3)C(=O)N[C@@H](Cc3c[nH]c4ccccc34)C(=O)N[C@@H](CCC(N)=O)C(N)=O)NC(=O)[C@H](C(C)C)NC(=O)[C@H](C)NC(=O)[C@H](C)NC(=O)[C@H](C)NC(=O)[C@H](CC(=O)O)NC(=O)[C@H](CC(=O)O)NC1=O)NC(=O)[C@H](C)NC(=O)[C@H](CC(=O)O)NC2=O (stereo partly drawn) [I-354, Ac-PL3-Asp-Ala-B5-Asp-Asp-Ala-Ala-Ala-Val-S8-Phe-Trp-Gln-NH2]
9 | 1.89 µM | – | 10 µM (≈ 18.4 µg/mL) | 2.74 | – | – | CC(=O)N1CCC[C@]12CC=CCCCC1(CCCC=CCCCCCC[C@@](C)(C(=O)N[C@@H](Cc3ccccc3)C(=O)N[C@@H](Cc3c[nH]c4ccccc34)C(=O)N[C@@H](CCC(N)=O)C(N)=O)NC(=O)[C@H](C(C)C)NC(=O)[C@H](Cc3ccccc3)NC(=O)[C@H](C)NC(=O)[C@H](C)NC(=O)[C@H](CCc3ccc(O)cc3)NC(=O)[C@H](CC(=O)O)NC1=O)NC(=O)[C@H](C)NC(=O)[C@H](CC(=O)O)NC2=O (stereo partly drawn) [I-273, Ac-PL3-Asp-Ala-B5-Asp-hTyr-Ala-Ala-Phe-Val-S8-Phe-Trp-Gln-NH2]
10 | 0.324 µM | 2.173 | 50 µM (≈ 91.9 µg/mL) | – | – | – | CCN(CC(=O)O)C[C@@H]1NC(=O)[C@H](CC(=O)O)NC(=O)C2(CCCC=CCCCCCC[C@@](C)(C(=O)N[C@@H](Cc3ccccc3)C(=O)N[C@@H](Cc3c[nH]c4ccccc34)C(=O)N[C@@H](CCC(N)=O)C(N)=O)NC(=O)[C@H](C(C)C)NC(=O)[C@H](Cc3ccccc3)NC(=O)[C@H](C)NC(=O)[C@H](C)NC1=O)CCCC=CC[C@]1(CCCN1C(C)=O)C(=O)N[C@@H](CC(=O)O)C(=O)N[C@@H](C)C(=O)N2 (stereo partly drawn) [I-172, Ac-PL3-Asp-Ala-B5-Asp-EtGA-Ala-Ala-Phe-Val-S8-Phe-Trp-Gln-NH2]
11 | 2.35 µM | – | 10 µM (≈ 18.3 µg/mL) | 2.62 | – | – | CC(=O)N1CCC[C@]12CC=CCCCC1(CCCC=CCCCCCC[C@@](C)(C(=O)N[C@@H](Cc3ccccc3)C(=O)N[C@@H](Cc3c[nH]c4ccccc34)C(=O)N[C@@H](CCC(N)=O)C(N)=O)NC(=O)[C@H](C(C)C)NC(=O)[C@H](Cc3ccccc3)NC(=O)[C@H](C)NC(=O)[C@H](C)NC(=O)[C@H](Cc3ccc(O)cc3)NC(=O)[C@H](CC(=O)O)NC1=O)NC(=O)[C@H](C)NC(=O)[C@H](CC(=O)O)NC2=O (stereo partly drawn) [I-274, Ac-PL3-Asp-Ala-B5-Asp-Tyr-Ala-Ala-Phe-Val-S8-Phe-Trp-Gln-NH2]
